Test results from patent US11648239B2, “Azophenols as ERG oncogene inhibitors” (The Henry M. Jackson Foundation for the Advancement of …, priority 2015, dated 2023).
pIC50: −log10 of the molar value.

Legend:
[1] = biological target: T1, ERG protein (Homo sapiens, UniProt P11308); assay: Inhibition of ERG protein in VCaP cells (Western blot); type: cell-based; details: for pIC50: metastatic prostate cancer, TMPRSS2-ERG fusion, N/D = assay performed, inhibition not detected at the tested levels
T1 construct: host or cells: VCaP
T1 sequence (P11308 33-479 limits assumed): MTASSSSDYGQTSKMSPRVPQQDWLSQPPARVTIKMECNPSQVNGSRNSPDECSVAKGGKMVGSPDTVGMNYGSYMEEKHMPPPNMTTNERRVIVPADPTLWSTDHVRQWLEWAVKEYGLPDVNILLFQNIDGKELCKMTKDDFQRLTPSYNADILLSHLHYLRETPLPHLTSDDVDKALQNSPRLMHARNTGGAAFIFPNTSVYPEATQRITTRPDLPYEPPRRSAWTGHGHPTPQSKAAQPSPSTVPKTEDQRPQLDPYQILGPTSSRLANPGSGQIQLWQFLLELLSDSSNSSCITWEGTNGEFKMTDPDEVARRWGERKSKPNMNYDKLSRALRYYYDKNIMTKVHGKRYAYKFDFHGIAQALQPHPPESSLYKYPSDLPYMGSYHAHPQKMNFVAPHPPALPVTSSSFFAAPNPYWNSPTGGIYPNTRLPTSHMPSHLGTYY
Experimental: The TMPRSS2-ERG fusion positive prostate cancer cell line, VCaP (ATCC), was used to identify the test compound inhibitors of ERG expression. Cells were grown in medium using conditions prescribed by the vendor. VCaP cells in logarithmic growth were seeded in a tissue culture dish at a cell density of 2×10^6 cells per plate. Following 48 hours incubation at 37° C., cells were exposed for a period of 48 hours with 0, 0.05, 0.25 and 0.5 μM concentrations of each test azophenol compound. The inhibition of ERG expression was evaluated by an In-cell Western blot assay (LI-COR Biosciences, Lincoln, Nebr.) using the ERG specific CPDR ERG-MAb as further described below.
(§1) Inhibition of ERG protein expression by the test compounds were determined by Western blot analysis. The ERG specific monoclonal antibody CPDR ERG-MAb was used as the primary antibody. In brief, Western blot was performed by running a fixed amount of total protein extracted from cell lysates of the treated cells using (4-12% Bis-Tris) gel by electrophoresis, followed by transfer to membrane and incubation with primary antibody and continued with HRP-conjugated secondary antibody. Cultured cells were treated at specific dosages with each of the tested ERG inhibitors. Following incubation of the treated cells for an indicated time period, cells were lysed using Mammalian Protein Extraction Reagent (M-PER; Pierce, Rockford, Ill.) containing a protease inhibitor cocktail and phosphatase inhibitor cocktails I & III (Sigma, St Louis, Mo.). Cell lysates containing 50 μg of total protein were electrophoresed through 4-12% Bis-Tris Gel (Invitrogen, Carlsbad, Calif.) and the cellular proteins were transferred to PVDF membrane (Invitrogen, Carlsbad, Calif.). Membranes were incubated at 4° C. for 12 hours with primary antibodies for AR, PSA, GAPDH, α-Tubulin, apoptosis markers and cell cycle regulators. Following exposure to primary antibodies, the membranes were washed with buffer (3×, 5 minutes each at room temperature) followed by incubation with relevant secondary antibodies for 1 hour at 24° C. Finally, the membranes were washed with buffer and developed using the ECL Western blot detection reagent (GE Health Care, Buckinghamshire, UK). The ERG protein expression of the test azophenol compounds were normalized with GAPDH.
In brief, ERG positive VCaP cells in loganthmic growth phase were plated in 10 cm tissue culture dish at a cell density of 2×10^6 cells per dish. The plated cells were treated with 0, 0.2, 0.4, 0.6, 0.8 and 1 μM concentrations of each azophenol compound for a period of 48 hours. Cells from each dish were then processed for Western blot analysis and alterations in the expression of ERG protein were monitored. Both ERG and GAPDH protein band were quantified from each concentration using Image J (NIH) and ERG band density was normalized with corresponding GAPDH protein control. Relative density of ERG in each concentration was calculated and with Graphpad Prism 6 software, the IC50 of each compound was calculated.

[2] = test system: VCaP cells; assay: VCaP cell growth inhibition; type: cell-based; details: for pIC50: metastatic prostate cancer, TMPRSS2-ERG fusion, N/D = assay performed, inhibition not detected at the tested levels
Experimental: (§2) Approximately 48 hours following plating of cells, the appropriate test compound is added to each well of the tissue culture dish at a predetermined concentration. The medium was replenished every 24 hours with fresh growth medium containing the same concentration of the same test compound for indicated period of the cell growth inhibition assay. Percent cell growth inhibition was calculated using a hemocytometer for estimating cell density in each of the test wells of the tissue culture dish and trypan blue dye exclusion microscopy and photography to estimate the fraction of viable cells in each test well.
To investigate whether the azophenol compounds selectively arrested the growth of ERG positive cancer cells (VCaP), VCaP cells were cultured to achieve cells in logarithmic growth and these cells were then plated in 6 well tissue culture dishes in duplicates at a cell density of 0.2×10^6 cells per well. The plated cells were exposed to 0, 0.2, 0.4, 0.6, 0.8 and 1 μM concentrations of each compound for a period of 8 days. At the end of time period, cells were recovered from the test plate, washed, trypsinized and the cell density of viable cells were determined with trypan blue dye staining method and automated cell counter Bio-Rad TC10. The IC50 of cell growth inhibition of each compound was determined by trypsinizing the cells at the end of the experiment and counting the cells by using the automated cell counter (Bio-Rad TC10 automated cell counter). The average cell numbers of each concentration were used to calculate the IC50 of each compound with the GraphPad Prism 6 software.

[3] = biological target: T2, ERG protein (Homo sapiens, UniProt P11308); details: PCT US2015/020172; cited from earlier work
T2 sequence (P11308 1-479): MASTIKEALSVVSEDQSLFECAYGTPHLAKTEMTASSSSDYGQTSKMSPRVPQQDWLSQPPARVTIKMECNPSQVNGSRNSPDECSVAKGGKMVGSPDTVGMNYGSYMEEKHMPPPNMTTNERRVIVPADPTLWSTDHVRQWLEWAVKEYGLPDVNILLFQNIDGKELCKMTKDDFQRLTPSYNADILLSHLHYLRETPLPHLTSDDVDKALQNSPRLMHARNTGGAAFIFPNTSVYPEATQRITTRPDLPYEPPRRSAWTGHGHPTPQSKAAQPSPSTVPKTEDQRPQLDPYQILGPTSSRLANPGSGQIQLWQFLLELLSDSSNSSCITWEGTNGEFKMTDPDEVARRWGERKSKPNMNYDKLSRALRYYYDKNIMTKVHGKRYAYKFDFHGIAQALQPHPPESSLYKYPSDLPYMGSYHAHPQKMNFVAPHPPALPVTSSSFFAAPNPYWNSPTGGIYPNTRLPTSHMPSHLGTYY

[4] = test system: normal primary endothelial cells; details: PCT US2015/020172; cited from earlier work
[5] = test system: AR; assay: Inhibition of endogenous AR protein in VCaP cells (Western blot); type: cell-based; details: 0.25 μM and 1 μM, FIG. 2
Experimental: as §1, with “Following exposure to primary antibodies, the membranes were washed with buffer (3×, 5 minutes each at room temperature) followed by incubation with relevant secondary antibodies for 1 hour at 24° C. Finally, the membranes were washed with buffer and developed using the ECL Western blot detection reagent (GE Health Care, Buckinghamshire, UK). The ERG protein expression of the test azophenol compounds were normalized with GAPDH.” left out

[6] = test system: PSA; assay: Inhibition of endogenous PSA protein in VCaP cells (Western blot); type: cell-based; details: 0.25 μM and 1 μM, FIG. 2
Experimental: as §1, with “Following exposure to primary antibodies, the membranes were washed with buffer (3×, 5 minutes each at room temperature) followed by incubation with relevant secondary antibodies for 1 hour at 24° C. Finally, the membranes were washed with buffer and developed using the ECL Western blot detection reagent (GE Health Care, Buckinghamshire, UK). The ERG protein expression of the test azophenol compounds were normalized with GAPDH.” left out

[7] = test system: AR; assay: Inhibition of endogenous AR protein in LNCaP cells (Western blot); type: cell-based; details: ERG negative LNCaP; 0.25 μM and 1 μM; FIG. 4
Experimental: (§3) To investigate whether the azophenol compounds of the invention are selective inhibitors of ERG protein expression, representative azophenol compounds were further tested for its ability to inhibit AR and PSA activity in the following AR positive/ERG negative prostate cancer cell lines: LNCaP (mutant AR positive and ERG negative), as well as in LAPC4 cells that are AR (wild type) positive and ERG negative.
(§4) Inhibition of ERG protein expression by the test compounds were determined by Western blot analysis. The ERG specific monoclonal antibody CPDR ERG-MAb was used as the primary antibody. In brief, Western blot was performed by running a fixed amount of total protein extracted from cell lysates of the treated cells using (4-12% Bis-Tris) gel by electrophoresis, followed by transfer to membrane and incubation with primary antibody and continued with HRP-conjugated secondary antibody. Cultured cells were treated at specific dosages with each of the tested ERG inhibitors. Following incubation of the treated cells for an indicated time period, cells were lysed using Mammalian Protein Extraction Reagent (M-PER; Pierce, Rockford, Ill.) containing a protease inhibitor cocktail and phosphatase inhibitor cocktails I & III (Sigma, St Louis, Mo.). […]

[8] = test system: PSA; assay: Inhibition of endogenous PSA protein in LNCaP cells (Western blot); type: cell-based; details: ERG negative LNCaP; 0.25 μM and 1 μM; FIG. 4
Experimental: as §3, §4

[9] = test system: LNCaP cells; assay: LNCaP cell growth; type: cell-based; details: 0.25 μM and 1 μM, FIG. 5
Experimental: as §2

[10] = test system: AR; assay: Inhibition of endogenous AR protein in LAPC-4 cells (Western blot); type: cell-based; details: ERG negative LAPC-4; 0.25 μM and 1 μM; FIG. 6
Experimental: as §3, §4

[11] = test system: LAPC-4 cells; assay: LAPC-4 cell growth; type: cell-based; details: 0.25 μM and 1 μM, FIG. 7
Experimental: as §2

[12] = biological target: T3, RIOK2 protein (Homo sapiens, UniProt Q9BVS4); assay: Inhibition of endogenous RIOK2 protein in COLO320 cells (Western blot); type: cell-based; details: 0.25 μM and 1 μM, FIG. 8
[13] = test system: COLO320 cells; assay: COLO320 cell growth; type: cell-based; details: 0.25 μM and 1 μM, FIG. 9
Experimental: as §2

[14] = biological target: T2, ERG protein; assay: Inhibition of ERG protein in HUVEC normal endothelial cells (Western blot); type: cell-based; details: 0.25 μM and 1 μM, FIG. 10
Experimental: as §1, with “Following exposure to primary antibodies, the membranes were washed with buffer (3×, 5 minutes each at room temperature) followed by incubation with relevant secondary antibodies for 1 hour at 24° C. Finally, the membranes were washed with buffer and developed using the ECL Western blot detection reagent (GE Health Care, Buckinghamshire, UK). The ERG protein expression of the test azophenol compounds were normalized with GAPDH.” left out

[15] = test system: HUVEC; assay: HUVEC cell growth; type: cell-based, human; details: 0.25 μM and 1 μM, FIG. 11
Experimental: as §2

[16] = test system: BPH-1 cells; assay: BPH-1 cell growth; type: cell-based; details: 0.25 μM and 1 μM, FIG. 12
Experimental: as §2

[17] = test system: RWPE-1 cells; assay: RWPE-1 cell growth; type: cell-based; details: 0.25 μM and 1 μM, FIG. 12
Experimental: as §2

[18] = biological target: T3, RIOK2 protein; assay: Inhibition of RIOK2 protein in VCaP cells (Western blot); type: cell-based; parameters: host or cells: VCaP; details: 0.1, 0.2, 0.4, 0.6, 0.8 and 1 μM; FIG. 14, 17
[19] = biological target: T2, ERG protein; assay: Inhibition of endogenous ERG protein in COLO320 cells (Western blot); type: cell-based; parameters: host or cells: COLO320; details: 0.25 μM and 1 μM, FIG. 8
Experimental: as §1, with “Following exposure to primary antibodies, the membranes were washed with buffer (3×, 5 minutes each at room temperature) followed by incubation with relevant secondary antibodies for 1 hour at 24° C. Finally, the membranes were washed with buffer and developed using the ECL Western blot detection reagent (GE Health Care, Buckinghamshire, UK). The ERG protein expression of the test azophenol compounds were normalized with GAPDH.” left out

[20] = biological target: T3, RIOK2 protein; assay: Inhibition of RIOK2 protein in HUVEC normal endothelial cells (Western blot); type: cell-based; parameters: ERG and RIOK2 proteins in endogenous ERG expressing normal endothelial cells (HUVEC); host or cells: HUVEC; details: 0.25 μM and 1 μM, FIG. 10
[21] = 0.3, 0.6, 1.0, 3.0 and 10.0 μM, FIG. 25-30

T3 sequence (Q9BVS4 whole entry): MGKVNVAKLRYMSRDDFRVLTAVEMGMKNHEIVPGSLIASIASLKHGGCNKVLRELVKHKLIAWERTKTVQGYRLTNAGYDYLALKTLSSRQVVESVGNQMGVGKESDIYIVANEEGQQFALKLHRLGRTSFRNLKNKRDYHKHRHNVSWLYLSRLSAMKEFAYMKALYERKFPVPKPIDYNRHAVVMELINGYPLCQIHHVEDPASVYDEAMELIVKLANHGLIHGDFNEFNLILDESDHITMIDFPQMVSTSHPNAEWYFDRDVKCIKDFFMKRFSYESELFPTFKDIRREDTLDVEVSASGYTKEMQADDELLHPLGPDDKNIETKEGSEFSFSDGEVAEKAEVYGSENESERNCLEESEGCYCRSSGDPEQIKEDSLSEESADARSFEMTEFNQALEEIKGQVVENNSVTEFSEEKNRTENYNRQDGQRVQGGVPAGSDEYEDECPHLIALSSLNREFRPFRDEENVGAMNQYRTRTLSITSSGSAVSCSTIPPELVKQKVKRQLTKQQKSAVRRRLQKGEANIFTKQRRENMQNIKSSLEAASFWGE

Cc1cc(N=Nc2nccs2)c(O)cc1O [Compound 3]
pIC50 ([1]; VCaP): 5.87 | inhibition of VCaP cell growth [2, 21]: inhibition | pIC50 ([2]; VCaP): 5.39

Oc1ccc2ccccc2c1N=Nc1nccs1 [ERGi-USU]
inhibition of ERG protein in ERG positive cancer cell lines [3]: inhibit the ERG protein | effect on normal primary endothelial cells that endogenously express ERG [4]: minimal effect

Cc1ccc(O)c(N=Nc2nccs2)c1 [Compound 2]
inhibition of ERG protein in VCaP cells ([1]; 0.1, 0.2, 0.4, 0.6, 0.8 and 1 μM, FIG. 13, 16): inhibition | inhibition of endogenous ERG protein ([1]; VCaP, 0.25 μM and 1 μM, FIG. 2): inhibition | inhibition of VCaP cell growth ([2]; 0.1, 0.2, 0.4, 0.6, 0.8 and 1 μM, FIG. 15, 18): inhibition | inhibition of the growth of ERG harboring prostate cancer cells ([2]; VCaP, 0.25 μM and 1 μM, FIG. 3): inhibition | inhibition of endogenous AR protein [5]: inhibition | inhibition of endogenous PSA protein [6]: inhibition | inhibition of endogenous AR protein [7]: lack of inhibition | inhibition of endogenous PSA protein [8]: lack of inhibition | growth of ERG negative prostate cancer cells [9]: do not affect the growth | inhibition of endogenous AR protein [10]: do not inhibit | growth of ERG negative prostate cancer cells [11]: do not affect the growth | inhibition of endogenous RIOK2 protein [12]: inhibition | inhibition of growth of ERG harboring colon cancer cells [13]: inhibition | inhibition of ERG protein [14]: lack of inhibition | growth of ERG harboring normal endothelial cells [15]: do not affect the growth | growth of ERG negative prostate-derived immortalized cells [16]: do not affect the growth | growth of ERG negative prostate-derived immortalized cells [17]: do not affect the growth | inhibition of RIOK2 protein in VCaP cells [18]: inhibition | inhibition of endogenous ERG protein [19]: inhibition | inhibition of RIOK2 protein [20]: lack of inhibition

Cc1cc(O)cc(O)c1N=Nc1nccs1 [Compound 4]
pIC50 ([1]; VCaP): 5.73 | inhibition of VCaP cell growth [2, 21]: inhibition | pIC50 ([2]; VCaP): 5.95
